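1) Cells in 96-well plates. 2) Compound, 48 h, 5 concentrations. 3) Linear interpolation between surrounding doses. 4) Unreached endpoint = highest concentration. The concentration for 50% growth inhibition is given as GI50.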 Active and inactive are the calls of the source. Cut-off read from the data, not from the text of the source: active = GI50 up to about 1.1 µM and inactive = higher.

Test systems include 786-0; A549; SNB-19; MDA-MB-435; CCRF-CEM; HT-29; M14; SK-MEL-5; MCF7; SK-OV-3; HOP-62; NCI-H460; MDA-N; IGROV-1; Hs-578T; SF-539; Malme-3M; RPMI-8226; UACC-62.
What all share (assay): NCI anticancer screen, dose series, 48 h

With `CCOC(=O)Nc1nc(-c2ccccc2)c(C)s1`, the GI50 was > 100 µM (inactive) in the experiment with 786-0; > 100 µM (inactive) in the experiment on A549; > 100 µM (inactive) in the experiment with SNB-19; > 100 µM (inactive) in the experiment on MDA-MB-435; 31.5 µM (inactive) with CCRF-CEM; 48.6 µM (inactive) in the experiment with HT-29. The GI50 was > 100 µM (inactive) in the experiment with M14; > 100 µM (inactive) with SK-MEL-5; 56.4 µM (inactive) with MCF7; > 100 µM (inactive) in the experiment with SK-OV-3; > 100 µM (inactive) in the experiment on HOP-62; 64 µM (inactive) in the experiment on NCI-H460. Moreover, the GI50 with MDA-N was > 100 µM (inactive); with IGROV-1, 44.2 µM (inactive); in the experiment on Hs-578T, > 100 µM (inactive); in the experiment on SF-539 it was > 100 µM (inactive); in the experiment on Malme-3M, > 100 µM (inactive); with RPMI-8226, > 100 µM (inactive). Further, the GI50 in the experiment with UACC-62 was > 100 µM (inactive).

As for `NNC(=O)CCSc1ccccc1`, the GI50 with 786-0, with A549, with SNB-19, with MDA-MB-435, in the experiment with CCRF-CEM and in the experiment with HT-29 was > 100 µM (inactive) throughout. For the same compound, the GI50 in the experiment on M14, in the experiment on SK-MEL-5, in the experiment on MCF7, with SK-OV-3, with HOP-62 and in the experiment on NCI-H460 was > 100 µM (inactive) throughout. In addition, the GI50 with MDA-N, in the experiment on IGROV-1, with Hs-578T, with SF-539, in the experiment on Malme-3M and with RPMI-8226 was > 100 µM (inactive) in each case. Further, the GI50 with UACC-62 is > 100 µM (inactive).

Turning to `Cc1ccnc(NS(=O)(=O)c2ccc(N=[N+]=[N-])cc2)n1`, the GI50 was > 100 µM (inactive) in the experiment on 786-0; > 100 µM (inactive) in the experiment with A549; > 100 µM (inactive) in the experiment on SNB-19; > 100 µM (inactive) with MDA-MB-435; > 21.4 µM (inactive) in the experiment with CCRF-CEM; > 100 µM (inactive) in the experiment with HT-29. Further, the GI50 with M14, in the experiment on SK-MEL-5, with MCF7, in the experiment with SK-OV-3, with HOP-62 and in the experiment with NCI-H460 was > 100 µM (inactive) throughout. Moreover, the GI50 in the experiment with MDA-N was > 100 µM (inactive); in the experiment with IGROV-1, > 100 µM (inactive); in the experiment on Hs-578T it was > 100 µM (inactive); in the experiment with SF-539 it was > 100 µM (inactive); in the experiment on Malme-3M, > 67.9 µM (inactive); in the experiment with RPMI-8226 it was > 100 µM (inactive). Moreover, the GI50 in the experiment with UACC-62 was > 100 µM (inactive).

For `CCCCOP(=O)(OCCCC)C(NS(=O)(=O)c1ccccc1)(C(=O)OCC)C(F)(F)F` (stereo not given), the GI50 with 786-0 is 33.3 µM (inactive); in the experiment with A549, 42.8 µM (inactive); in the experiment with SNB-19 it was 29.2 µM (inactive); with MDA-MB-435, 29.5 µM (inactive); with CCRF-CEM, 27.2 µM (inactive); in the experiment on HT-29, 40 µM (inactive). Further, the GI50 in the experiment on M14 is 25.9 µM (inactive); with SK-MEL-5, 18.1 µM (inactive); in the experiment on MCF7 it was 16.6 µM (inactive); with SK-OV-3, 58.5 µM (inactive); in the experiment with HOP-62, 22.7 µM (inactive); in the experiment on NCI-H460 it was 37.6 µM (inactive). Also, the GI50 is 37.2 µM (inactive) in the experiment with MDA-N; 23.3 µM (inactive) with IGROV-1; 54.8 µM (inactive) in the experiment with Hs-578T; 19.5 µM (inactive) with SF-539; 23.1 µM (inactive) in the experiment with Malme-3M; 24.5 µM (inactive) in the experiment on RPMI-8226. The GI50 in the experiment with UACC-62 is 43.9 µM (inactive).

With `NCC(=O)C(O)C(O)C(O)CO` (stereo not given), the GI50 with 786-0, in the experiment on A549, with SNB-19, in the experiment with MDA-MB-435, in the experiment with CCRF-CEM and in the experiment on HT-29 was > 100 µM (inactive) in each case. Further, the GI50 in the experiment on M14, in the experiment on SK-MEL-5, with MCF7, in the experiment on SK-OV-3, with HOP-62 and in the experiment on NCI-H460 was > 100 µM (inactive) in each case. The GI50 in the experiment on MDA-N, with IGROV-1, in the experiment with Hs-578T, in the experiment with SF-539, in the experiment with Malme-3M and with RPMI-8226 was > 100 µM (inactive) each time. Also, in the experiment with UACC-62, the GI50 was > 100 µM (inactive).

Turning to `COc1cc2cc(C(=O)N3CC(CCl)c4ccc([N+](C)(C)Cc5ccc([N+](=O)[O-])cc5)cc43)[nH]c2c(OC)c1OC` (stereo not given), the GI50 is 2.32 µM (inactive) in the experiment on 786-0; 1.8 µM (inactive) in the experiment on A549; 8.53 µM (inactive) with SNB-19; 4.54 µM (inactive) in the experiment with MDA-MB-435; 2.01 µM (inactive) in the experiment on CCRF-CEM; 2.03 µM (inactive) with HT-29. For the same compound, the GI50 with M14 was 5.68 µM (inactive); in the experiment with SK-MEL-5, 1.71 µM (inactive); in the experiment on MCF7 it was 2.14 µM (inactive); in the experiment on SK-OV-3, 2.28 µM (inactive); with HOP-62, 4.92 µM (inactive); in the experiment with NCI-H460 it was 1.52 µM (inactive). Moreover, the GI50 with MDA-N was 3.53 µM (inactive); with IGROV-1, 1.97 µM (inactive); in the experiment on Hs-578T, 9.62 µM (inactive); in the experiment on SF-539, 1.78 µM (inactive); in the experiment with Malme-3M, 2.48 µM (inactive); in the experiment with RPMI-8226, 2.01 µM (inactive). Besides, in the experiment on UACC-62, the GI50 was 2.13 µM (inactive).

As for `CC(=O)NC1C(OCc2ccccc2)OC(CO)C(O)C1OCC(=O)N1CCCC1C(=O)NC(CCC(=O)NCCCCCNc1c2ccccc2nc2cccc([N+](=O)[O-])c12)C(N)=O` (stereo not given), the GI50 with 786-0 was 0.0131 µM (active); in the experiment with A549, 0.0134 µM (active); in the experiment with SNB-19, 0.028 µM (active); with MDA-MB-435 it was 0.0154 µM (active); in the experiment on CCRF-CEM, 0.07 µM (active); with HT-29, 0.00125 µM (active). Moreover, the GI50 in the experiment with M14 was 0.0228 µM (active); in the experiment on SK-MEL-5, 0.00853 µM (active); in the experiment on MCF7, 0.003 µM (active); in the experiment on SK-OV-3, 0.0869 µM (active); with HOP-62, 0.017 µM (active); in the experiment with NCI-H460, 0.00125 µM (active). The GI50 is 0.019 µM (active) in the experiment on MDA-N; 0.232 µM (active) in the experiment with IGROV-1; 0.0345 µM (active) in the experiment on Hs-578T; 0.0456 µM (active) with SF-539; 0.0188 µM (active) in the experiment with Malme-3M; 0.00331 µM (active) in the experiment on RPMI-8226. The GI50 in the experiment with UACC-62 was 0.0225 µM (active).

Regarding `COc1ccc2c(c1)[C@@]13CCN4CC5=CCO[C@H]6CC(=O)N2[C@H]1[C@H]6[C@H]5C[C@H]43`, the GI50 in the experiment with 786-0 is > 100 µM (inactive); with A549, > 100 µM (inactive); with SNB-19 it was > 100 µM (inactive); in the experiment with MDA-MB-435, > 100 µM (inactive); in the experiment on CCRF-CEM, 88.5 µM (inactive); with HT-29 it was 37.2 µM (inactive). For the same compound, the GI50 with M14, with SK-MEL-5, in the experiment with MCF7, in the experiment on SK-OV-3, in the experiment on HOP-62 and in the experiment on NCI-H460 was > 100 µM (inactive) throughout. Besides, the GI50 in the experiment with MDA-N was > 100 µM (inactive); with IGROV-1, 34.9 µM (inactive); with Hs-578T it was 33.7 µM (inactive); in the experiment on SF-539 it was > 100 µM (inactive); with Malme-3M, 90.4 µM (inactive); in the experiment with RPMI-8226, > 100 µM (inactive). Further, the GI50 with UACC-62 was > 100 µM (inactive).

Take `COC(=O)C(Cc1c[nH]c2ccccc12)NC1=Nc2ccncc2S(=O)(=O)N1c1cccc(OC(C)C)c1` (stereo not given): the GI50 in the experiment on 786-0 was 34.2 µM (inactive); in the experiment on A549 it was 29.6 µM (inactive); with SNB-19, 68.1 µM (inactive); in the experiment on MDA-MB-435, 45.9 µM (inactive); in the experiment on CCRF-CEM it was 20.6 µM (inactive); with HT-29, 34.2 µM (inactive). Also, the GI50 was 41.6 µM (inactive) in the experiment on M14; 25.5 µM (inactive) in the experiment on SK-MEL-5; 24.7 µM (inactive) with MCF7; > 100 µM (inactive) in the experiment on SK-OV-3; 56.2 µM (inactive) with HOP-62; 27.7 µM (inactive) in the experiment on NCI-H460. Besides, the GI50 in the experiment on MDA-N is 67.3 µM (inactive); in the experiment on IGROV-1, 18.7 µM (inactive); with Hs-578T, > 100 µM (inactive); in the experiment on SF-539 it was 80.5 µM (inactive); with Malme-3M, 56.1 µM (inactive); in the experiment on RPMI-8226, 15.5 µM (inactive). Also, in the experiment with UACC-62, the GI50 was 25.9 µM (inactive).

For `CCCCc1cc2c(cc1O)CCC1C2CC[C@@]2(C)C1CC[C@@H]2O` (stereo not given in full), the GI50 in the experiment on 786-0 was 22.8 µM (inactive); with A549, 13.5 µM (inactive); in the experiment on SNB-19, 25.5 µM (inactive); with MDA-MB-435, 16.9 µM (inactive); with CCRF-CEM it was 21.5 µM (inactive); with HT-29 it was 23.2 µM (inactive). Further, the GI50 with M14 is 18.9 µM (inactive); in the experiment with SK-MEL-5, 20.8 µM (inactive); in the experiment with MCF7, 11.8 µM (inactive); in the experiment with SK-OV-3, 16.3 µM (inactive); with HOP-62, 28.4 µM (inactive); with NCI-H460, 21.9 µM (inactive). Also, the GI50 in the experiment with MDA-N is 23.4 µM (inactive); with IGROV-1 it was 22 µM (inactive); in the experiment with Hs-578T, 11.3 µM (inactive); in the experiment on SF-539 it was 26.2 µM (inactive); in the experiment on Malme-3M, 20.7 µM (inactive); in the experiment on RPMI-8226, 5.14 µM (inactive). Besides, the GI50 in the experiment with UACC-62 is 11.6 µM (inactive).

The values are drawn from ChEMBL document CHEMBL1201862, “PubChem BioAssay data set” (2004).
